In brackets after ≈: the same amount, converted by molar mass.
Tests used:
Staphylococcus aureus [1] = assay: Antibacterial activity against methicillin susceptible Staphylococcus aureus RN4220 in presence of 8 ug/mL Nalpha,Nepsilon-diacetyl-L-Lys-D-Ala-D-Ala by broth dilution method; assay type: functional
Staphylococcus aureus [2] = assay: Antibacterial activity against vancomycin A resistant Staphylococcus aureus isolate HIP11714 by broth dilution method; assay type: functional
Enterococcus faecalis [3] = assay: Antibacterial activity against vancomycin A resistant Enterococcus faecalis isolate SR-7914 by broth dilution method; assay type: functional; details: isolate SR7914
Enterococcus faecium [4] = assay: Antibacterial activity against constitutively vancomycin B resistant Enterococcus faecium isolate SRM1101 by broth dilution method; assay type: functional
Staphylococcus aureus [5] = assay: Inhibition of lipid intermediate formation in methicillin susceptible Staphylococcus aureus RN4220 assessed as reduction in N-acetyl-D-[1-3H]glucosamine incorporation in crude assay system; assay type: functional
Staphylococcus aureus [6] = assay: Inhibition of lipid intermediate formation in vancomycin A resistant Staphylococcus aureus isolate HIP11714 assessed as reduction in N-acetyl-D-[1-3H]glucosamine incorporation in crude assay system; assay type: functional
Staphylococcus aureus [7] = assay: Antibacterial activity against methicillin susceptible Staphylococcus aureus RN4220 in presence of 8 ug/mL Nalpha,Nepsilon-diacetyl-L-Lys-D-Ala-D-Lactate by broth dilution method; assay type: functional
Enterococcus faecium [8] = assay: Antibacterial activity against vancomycin sensitive Enterococcus faecium isolate SR-16972 by broth dilution method; assay type: functional; details: isolate SR16972
Enterococcus faecalis [9] = assay: Antibacterial activity against vancomycin B resistant Enterococcus faecalis isolate SR-23630 by broth dilution method; assay type: functional; details: isolate SR23630
Staphylococcus aureus [10] = assay: Antibacterial activity against methicillin susceptible Staphylococcus aureus RN4220 by broth dilution method; assay type: functional
Staphylococcus aureus [11] = assay: Antibacterial activity against methicillin resistant Staphylococcus aureus SR-3637 by broth dilution method; assay type: functional; details: SR3637
Staphylococcus aureus [12] = assay: Antibacterial activity against methicillin susceptible Staphylococcus aureus RN4220 in presence of 64 ug/mL Nalpha,Nepsilon-diacetyl-L-Lys-D-Ala-D-Lactate by broth dilution method; assay type: functional
[13] = Inhibition of methicillin susceptible Staphylococcus aureus RN4220 transglycosylase assessed as inhibition of peptidoglycan formation by crude assay
[14] = Inhibition of vancomycin A resistant Staphylococcus aureus isolate HIP11714 transglycosylase assessed as inhibition of peptidoglycan formation by crude assay
Enterococcus faecium [15] = assay: Antibacterial activity against vancomycin B resistant Enterococcus faecium isolate SR-23598 by broth dilution method; assay type: functional; details: isolate SR23598
Staphylococcus aureus [16] = assay: Antibacterial activity against methicillin susceptible Staphylococcus aureus RN4220 in presence of 64 ug/mL Nalpha,Nepsilon-diacetyl-L-Lys-D-Ala-D-Ala by broth dilution method; assay type: functional
Staphylococcus aureus [17] = assay: Antibacterial activity against vancomycin intermediate Staphylococcus aureus ATCC 700787 by broth dilution method; assay type: functional
Staphylococcus aureus [18] = assay: Antibacterial activity against methicillin susceptible Staphylococcus aureus Smith by broth dilution method; assay type: functional
Enterococcus faecalis [19] = assay: Antibacterial activity against vancomycin susceptible Enterococcus faecalis isolate SR1004 by broth dilution method; assay type: functional
Enterococcus faecium [20] = assay: Antibacterial activity against vancomycin A resistant Enterococcus faecium isolate SR-7940 by broth dilution method; assay type: functional; details: isolate SR7940

| SMILES | MIC (Staphylococcus aureus [1]) | MIC (Staphylococcus aureus [2]) | MIC (Enterococcus faecalis [3]) | MIC (Enterococcus faecium [4]) | IC50 (Staphylococcus aureus [5]) | IC50 (Staphylococcus aureus [6]) | MIC (Staphylococcus aureus [7]) | MIC (Enterococcus faecium [8]) | MIC (Enterococcus faecalis [9]) | MIC (Staphylococcus aureus [10]) | MIC (Staphylococcus aureus [11]) | MIC (Staphylococcus aureus [12]) | IC50 [13] | IC50 [14] | MIC (Enterococcus faecium [15]) | MIC (Staphylococcus aureus [16]) | MIC (Staphylococcus aureus [17]) | MIC (Staphylococcus aureus [18]) | MIC (Enterococcus faecalis [19]) | MIC (Enterococcus faecium [20]) |
| --- | --- | --- | --- | --- | --- | --- | --- | --- | --- | --- | --- | --- | --- | --- | --- | --- | --- | --- | --- | --- |
| CN[C@H](CC(C)C)C(=O)N[C@H]1C(=O)N[C@@H](CC(N)=O)C(=O)N[C@H]2C(=O)N[C@H]3C(=O)N[C@H](C(=O)N[C@H](C(=O)O)c4cc(O)cc(O)c4-c4cc3ccc4O)[C@H](O)c3ccc(c(Cl)c3)Oc3cc2cc(c3O[C@H]2O[C@@H](CO)[C@H](O)[C@@H](O)[C@@H]2O[C@@H]2C[C@@](C)(NCc3cccc(NC(=O)c4ccc(C)c(OCc5ccccc5)c4[N+](=O)[O-])c3)[C@@H](O)[C@@H](C)O2)Oc2ccc(cc2Cl)[C@H]1O | 0.125 mg/L | 4 mg/L (≈ 2.19 µM) | 2 mg/L (≈ 1.1 µM) | 4 mg/L (≈ 2.19 µM) | 32 mg/L (≈ 17.5 µM) | 76 mg/L (≈ 41.7 µM) | 0.125 mg/L | 0.25 mg/L (≈ 0.137 µM) | 0.5 mg/L (≈ 0.274 µM) | 0.125 mg/L (≈ 0.0685 µM) | 0.25 mg/L (≈ 0.137 µM) | 0.0625 mg/L | 4.2 mg/L (≈ 2.3 µM) | 36 mg/L (≈ 19.7 µM) | 0.25 mg/L (≈ 0.137 µM) | 0.5 mg/L | 2 mg/L (≈ 1.1 µM) | 0.125 mg/L (≈ 0.0685 µM) | 0.25 mg/L (≈ 0.137 µM) | 1 mg/L (≈ 0.548 µM) |
| Cc1ccc(C(=O)Nc2cccc(CN[C@]3(C)C[C@@H](O[C@@H]4[C@@H](Oc5c6cc7cc5Oc5ccc(cc5Cl)[C@@H](O)[C@@H](N)C(=O)N[C@@H](CC(N)=O)C(=O)N[C@H]7C(=O)N[C@H]5C(=O)N[C@H](C(=O)N[C@H](C(=O)O)c7cc(O)cc(O)c7-c7cc5ccc7O)[C@H](O)c5ccc(c(Cl)c5)O6)O[C@@H](CO)[C@H](O)[C@H]4O)O[C@H](C)[C@@H]3O)c2)c([N+](=O)[O-])c1OCc1ccccc1 | 2 mg/L | 16 mg/L (≈ 9.43 µM) | 8 mg/L (≈ 4.72 µM) | 16 mg/L (≈ 9.43 µM) | 140 mg/L (≈ 82.5 µM) | 93 mg/L (≈ 54.8 µM) | 2 mg/L | 2 mg/L (≈ 1.18 µM) | 4 mg/L (≈ 2.36 µM) | 2 mg/L (≈ 1.18 µM) | 2 mg/L (≈ 1.18 µM) | 1 mg/L | 11 mg/L (≈ 6.48 µM) | 53 mg/L (≈ 31.2 µM) | 4 mg/L (≈ 2.36 µM) | 2 mg/L | 4 mg/L (≈ 2.36 µM) | 2 mg/L (≈ 1.18 µM) | 2 mg/L (≈ 1.18 µM) | 8 mg/L (≈ 4.72 µM) |
| C[C@H]1O[C@H](O[C@@H]2[C@@H](Oc3c4cc5cc3Oc3ccc(cc3Cl)[C@@H](O)[C@@H](N)C(=O)N[C@@H](CC(N)=O)C(=O)N[C@H]5C(=O)N[C@H]3C(=O)N[C@H](C(=O)N[C@H](C(=O)O)c5cc(O)cc(O)c5-c5cc3ccc5O)[C@H](O)c3ccc(c(Cl)c3)O4)O[C@@H](CO)[C@H](O)[C@H]2O)C[C@@](C)(N)[C@H]1O |  | > 64 mg/L | > 64 mg/L | > 64 mg/L | 3900 mg/L (≈ 2950 µM) | 3100 mg/L (≈ 2340 µM) |  | > 64 mg/L | > 64 mg/L | > 64 mg/L | > 64 mg/L |  | 130 mg/L (≈ 98.3 µM) | 920 mg/L (≈ 696 µM) | > 64 mg/L |  | > 64 mg/L | > 64 mg/L | > 64 mg/L | > 64 mg/L |
| CN[C@H](CC(C)C)C(=O)N[C@H]1C(=O)N[C@@H](CC(N)=O)C(=O)N[C@H]2C(=O)N[C@H]3C(=O)N[C@H](C(=O)N[C@H](C(=O)O)c4cc(O)cc(O)c4-c4cc3ccc4O)[C@H](O)c3ccc(c(Cl)c3)Oc3cc2cc(c3O[C@@H]2O[C@H](CO)[C@@H](O)[C@H](O)[C@H]2O[C@H]2C[C@](C)(N)[C@H](O)[C@H](C)O2)Oc2ccc(cc2Cl)[C@H]1O [VANCOMYCIN] |  | > 64 mg/L | > 64 mg/L | > 64 mg/L | 180 mg/L (≈ 124 µM) | 2300 mg/L (≈ 1590 µM) |  |  | 32 mg/L (≈ 22.1 µM) |  |  |  | 4.5 mg/L (≈ 3.11 µM) | 85 mg/L (≈ 58.7 µM) | > 64 mg/L | 16 mg/L | 8 mg/L (≈ 5.52 µM) |  | 2 mg/L (≈ 1.38 µM) | > 64 mg/L |
